Reference: patent US20050266088A1, “Formulation for fast dissolution of lipophilic compounds” (Rijksuniversiteit Groningen, priority 2002, published 2005)

Experiment: Dissolution experiments on tablets (Prolabo dissolution apparatus)
Type: physicochemical
Details: for dissolution rate of the sugar matrix (Anthrone assay): tablets with diazepam, water, 37° C., 100 rpm
Method: After compaction the tablets were weighed and subsequently submitted to dissolution experiments.
Dissolution was performed on a Prolabo dissolution apparatus, Rowa Techniek B.V. All experiments were conducted at 37° C. in 1000 mL under constant stirring with 100 rpm. Tablets prepared from physical mixtures and solid dispersions were analysed in triplicate.
To determine the sugar concentrations the Anthrone assay was used. (Scott et al. 1953) Samples were taken at appropriate intervals during the dissolution. […] Due to the enthalpy of mixing, the sample was heated to its boiling point. The boiling mixture was then cooled to room temperature. After 45 minutes the sample was vortexed and […] of sample was analysed in the plate reader at 630 nm. […] In every Anthrone assay a calibration curve of the appropriate sugar in the appropriate medium was established.

For `CN1C(=O)CN=C(c2ccccc2)c2cc(Cl)ccc21` [diazepam, Diazepam], the “release of drug from physical mixture tablets” value was “fast compared to the solid dispersions” and the “release of drug from solid dispersion tablets” value was “fast release”.
With `OC[C@H]1O[C@@](CO)(O[C@H]2O[C@H](CO)[C@@H](O)[C@H](O)[C@H]2O)[C@@H](O)[C@@H]1O` [sucrose] the “dissolution rate of the sugar matrix (Anthrone assay)” value was “dissolve faster compared to the inulins”.
For `OC[C@H]1O[C@H](O[C@H]2O[C@H](CO)[C@@H](O)[C@H](O)[C@H]2O)[C@H](O)[C@@H](O)[C@@H]1O` [trehalose], the “dissolution rate of the sugar matrix (Anthrone assay)” value was “dissolve faster compared to the inulins”.
